The record followed here is patent US6388108B1, “Aminosterol compounds and uses thereof” (Genaera Corporation, priority 1998, dated 2002).

Holding throughout (experiment): Minimum inhibitory concentration (MIC), microtiter broth incubation
What all share (assay type): cell-based
Common to all, as to details: 0.5x trypticase soy broth, 37° C., 18-24 hours; lowest concentration with no growth

One experiment concerns C. albicans. As for the experimental part: (§1) Aminosterol compounds (1)-(11) were assayed in vitro against several microbial organisms to evaluate their spectrum of activity. Minimum inhibitory concentrations (MIC) for the bacteria and yeast were determined by incubating 0.9-1.1e5 colony-forming units per milliliter of log-phase microbes in 0.5×trypticase soy broth with increasing concentrations of sample in ninety-six well microtiter plates (commercially available from Corning of Corning, N.Y.) at 37° C. for eighteen to twenty-four hours. The minimum inhibitory concentration (MIC) is the lowest concentration of sample at which no growth was observed. Control incubation in the absence of bacteria served as a baseline value. Initial sample concentrations were two milligrams per milliliter in 250 mM sodium acetate, pH 6.6.

The test system of another experiment is P. aeruginosa. The method, then: as §1
Another experiment deals with S. aureus. As for the experimental part: as §1
The next experiment relates to E. coli. The method, then:
as §1

In brackets after ≈: the same amount, converted by molar mass.

For the compound `CC(CSCC(N)C(=O)O)C(=O)CCC(C)C1CCC2C3C(O)CC4CC(NCCCNCCCCN)CCC4(C)C3CCC12C` (stereo not drawn) [Aminosterol (1)], in the experiment with C. albicans, the “MIC C. albicans” value was 128 µg/mL (≈ 192 µM). For the same compound, in the experiment on P. aeruginosa, the “MIC P. aeruginosa” value came to 256 µg/mL (≈ 385 µM). In the experiment on S. aureus, the “MIC S. aureus” value is 8 to 16 µg/mL. Moreover, the “MIC E. coli” value in the experiment with E. coli came to 256 µg/mL (≈ 385 µM).
With `CC(CCC(=O)C(C)(C)O)C1CCC2C3C(O)CC4CC(NCCCNCCCCN)CCC4(C)C3CCC12C` (stereo not drawn) [Aminosterol (2)], the “MIC P. aeruginosa” value with P. aeruginosa is >250 µg/mL. For the same compound, in the experiment with S. aureus, the “MIC S. aureus” value was found to be 31 µg/mL (≈ 55.2 µM). For the same compound, the “MIC E. coli” value against E. coli was 125 µg/mL (≈ 222 µM).
With `CC(CO)C(CCC(C)C1CCC2C3C(O)CC4CC(NCCCNCCCCN)CCC4(C)C3CCC12C)OS(=O)(=O)O` (stereo not drawn) [Aminosterol (3)], the “MIC P. aeruginosa” value in the experiment on P. aeruginosa was >250 µg/mL. Moreover, the “MIC S. aureus” value in the experiment with S. aureus is 250 µg/mL (≈ 388 µM). Moreover, the “MIC E. coli” value in the experiment on E. coli is >250 µg/mL.
For `CC(COS(=O)(=O)O)C(O)CCC(C)C1CCC2C3C(O)CC4CC(NCCCNCCCCN)CCC4(C)C3CCC12C` (stereo not drawn) [Aminosterol (4)], in the experiment with C. albicans, the “MIC C. albicans” value stood at 16 µg/mL (≈ 24.8 µM). In addition, the “MIC P. aeruginosa” value in the experiment on P. aeruginosa is 32 µg/mL (≈ 49.7 µM). Moreover, in the experiment on S. aureus, the “MIC S. aureus” value lay in the range of 4 to 8 µg/mL. Moreover, the “MIC E. coli” value in the experiment on E. coli is 128 µg/mL (≈ 199 µM).
On to `CC(CO)C(O)CCC(C)C1CCC2C3C(O)CC4CC(NCCCNCCCCN)CCC4(C)C3CCC12C` (stereo not drawn) [Aminosterol (5)], for which the “MIC P. aeruginosa” value in the experiment on P. aeruginosa worked out at 250 µg/mL (≈ 443 µM). Besides, the “MIC S. aureus” value against S. aureus was found to be 63 µg/mL (≈ 112 µM). In addition, in the experiment on E. coli, the “MIC E. coli” value turned out to be 125 µg/mL (≈ 222 µM).
`CC(CO)C(=O)CCC(C)C1CCC2C3C(O)CC4CC(NCCCNCCCCN)CCC4(C)C3CCC12C` (stereo not drawn) [Aminosterol (6)]: in the experiment on P. aeruginosa, the “MIC P. aeruginosa” value is >250 µg/mL. Moreover, the “MIC S. aureus” value against S. aureus turned out to be 8 µg/mL (≈ 14.2 µM). Further, the “MIC E. coli” value against E. coli came to 63 µg/mL (≈ 112 µM).
Consider `CC(C)C(CCC(C)C1CCC2C3C(O)CC4CC(NCCCNCCCCN)CCC4(C)C3CC(O)C12C)OS(=O)(=O)O` (stereo not drawn) [Aminosterol (7)], for which the “MIC C. albicans” value against C. albicans was 32 µg/mL (≈ 49.7 µM). For the same compound, the “MIC P. aeruginosa” value with P. aeruginosa was 16 µg/mL (≈ 24.8 µM). The “MIC S. aureus” value with S. aureus lay within 8 to 16 µg/mL. The “MIC E. coli” value in the experiment with E. coli stood at 16 µg/mL (≈ 24.8 µM).
For the compound `CC(CCCC(C)(C)O)C1CCC2C3C(O)CC4CC(NCCCNCCCCN)CCC4(C)C3CCC12C` (stereo not drawn) [Aminosterol (8)], the “MIC P. aeruginosa” value in the experiment with P. aeruginosa was 32 µg/mL (≈ 58.4 µM). Further, the “MIC S. aureus” value against S. aureus was determined as 1 µg/mL (≈ 1.83 µM). Further, the “MIC E. coli” value against E. coli was 8 µg/mL (≈ 14.6 µM).
In the same order, the values of `CC(COS(=O)(=O)O)C(O)CCC(C)C1CCC2C3C(O)CC4CC(NCCCNCCCCNCCCN)CCC4(C)C3CCC12C` (stereo not drawn) [Aminosterol (9)] are 31 µg/mL (≈ 44.2 µM), 31 µg/mL (≈ 44.2 µM) and 31 µg/mL (≈ 44.2 µM).
Turning to `CC(C)C(CCC(C)C1CCC2C3C(=O)CC4CC(NCCCNCCCCN)CCC4(C)C3CCC12C)OS(=O)(=O)O` (stereo not drawn) [Aminosterol (10)], the “MIC P. aeruginosa” value against P. aeruginosa came to 31 µg/mL (≈ 49.5 µM). In the experiment on S. aureus, the “MIC S. aureus” value was determined as 2 µg/mL (≈ 3.2 µM). Moreover, the “MIC E. coli” value in the experiment on E. coli amounted to 8 µg/mL (≈ 12.8 µM).
The like results for `CC(C)C(CCC(C)C1CCC2C3CCC4CC(NCCCNCCCCN)CCC4(C)C3CCC12C)OS(=O)(=O)O` (stereo not drawn) [Aminosterol (11)] were, in that order, 250 µg/mL (≈ 409 µM), 16 µg/mL (≈ 26.1 µM) and 125 µg/mL (≈ 204 µM).
